The results in this text go back to a melting point compilation (Tetko et al.; mined from patent text by program, amines drawn as free bases though some values may be those of a salt).

Where only a bound is given, the exact number is not on record here.

Consider `OCc1ccc(-c2nn(Cc3ccccc3)c3ncncc23)o1`, for which the melting point turned out to be 165 °C.
As to `Cc1c(C=CCN2CCOCC2)[nH]c(=O)c2c1ccc1nc(Nc3c(Cl)cccc3Cl)n(C)c12`, the melting point lay in the range of 175 to 177 °C.
With `CC1(C)CCc2c(N3CCOCC3)nc3sc4c(NCc5ccc(S(N)(=O)=O)cc5)ncnc4c3c2C1`, the melting point was 258 to 260 °C.
For `CCCOC(=O)c1cncn1C(c1ccccc1)c1ccccc1`, the melting point came to 81 °C.
`Nc1nc(-c2cc(Cl)ccc2Cl)nc(N2CCC(O)CC2)n1` came in with a melting point of 222 to 224 °C.
In turn, `C=Cc1ccc(CP(=O)(C(=O)c2c(C)cc(C)cc2C)C(=O)c2c(C)cc(C)cc2C)cc1` gave a melting point of 208 °C.
The value for `CCC12OC1C(=O)C(Nc1ncnc3cc(OC)c(OC)cc13)=CC2=O` (configuration not stated) was 202 to 204 °C.
Take `Cc1oc(-c2ccccc2)nc1COc1ccc(COc2ncccc2C=O)cc1`: the melting point was in the range of 97 to 98 °C.
`Cc1ccc(C(=O)Nc2ccc(CN3CCCC3)c(C(F)(F)F)c2)cc1Br` yielded a melting point of 168 to 170 °C.
The value for `CCc1ccc(C(=NO)c2ccc(F)cc2)c(O)c1` was 130 to 132 °C; that for `COC(=O)CCc1ccc(O)c(C(C)(C)C)c1` was 59 to 61 °C; that for `COc1ccc(C(=O)c2ccccc2)cc1COc1ccc(Cl)cc1` was 103 °C.
`CCOC(=O)c1c(SC)c(C#N)c(=O)n2ccccc12` showed a melting point of 128 to 129 °C.
Consider `CN(C)c1ccc(C2(c3ccc(N(C)C)cc3Cl)OC(=O)c3cc(N(C)C)ccc32)cc1` (configuration not stated), for which the melting point lay within 233 to 234 °C.
`COOC(=O)c1cc2c(Cl)cn(C)c2nc1C(=O)OOC` had a melting point of 129 to 137 °C.
For `CC(=O)C(=NNc1ccc(Cl)cc1)Sc1ccc(Cl)cc1` the value was 164 to 167 °C; for `O=C(NC(Cc1ccc(OCc2cccc(F)c2)cc1)C(=O)O)c1cn2ccc(-c3ccc(Cl)cc3)cc2n1` (configuration not stated), 248 to 250 °C; for `COc1ccccc1N1CCN(CCCNC(=O)c2cc(OC(C)=O)cc3c(=O)c(C)c(-c4ccccc4)oc23)CC1`, 148 to 149 °C.
Take `CCOC(=O)c1ccc(NC(=O)CCc2ccc(OC)cc2)cc1`: the melting point was 134 to 136 °C.
`CNc1cc(C(=O)O)ccc1C` had a melting point of 167 to 169 °C.
Regarding `O=C(O)CCC(=O)c1ccc(-c2ccccc2F)cc1`, the melting point is 148 to 153 °C.
The compound `O=C1c2cc(Cl)ccc2-n2cccc21` yielded a melting point of 92 °C.
In turn, `COC(=O)Cc1cc(C(=O)c2ccccc2Cl)ccc1O` showed a melting point of 119 °C.
`Cc1c(OCCBr)ccc2c(=O)cc(N3CCOCC3)oc12` displayed a melting point of 210 to 212 °C.
For `CCCCCCCCCCCCCCCCCCOC(=O)Nc1ccc(NC(=O)NS(=O)(=O)c2ccc3ccccc3c2)cc1` the value was 178 °C.
On to `CC1(C)CC(CN2CCCNC2=N[N+](=O)[O-])CO1` (configuration not stated), for which the melting point was 109 to 110 °C.
Turning to `OC(c1ccc(F)cc1)(c1ccc(F)cc1)C1CCN(CCCOc2ccc(Cl)cc2)CC1`, the melting point was in the range of 92 to 93 °C.
For the compound `c1ccc(Oc2ccc(-c3nc(-c4ccccc4)c(-c4ccccc4)o3)cc2)cc1`, the melting point lay within 125 to 126 °C.
For `Cc1oc(-c2ccco2)nc1COc1ccc(Cc2nc(-c3ccccc3)c(CCC(=O)O)o2)cc1` the value was 74 to 76 °C; for `CCOC(=O)C(=CNC(C)(C)C)C(=O)c1cc(F)c(Cl)cc1Cl`, 87 °C.
Compound `CCCCCCCCCCCC(=O)c1c[nH]c2cc(C(=O)OC)ccc12` registered a melting point of 167 to 169 °C.
For the compound `C=CCC(CC=C)(CC=C)C(=O)O[C@H]1C[C@H](O)C=C2C=C[C@H](C)[C@H](CC[C@@H]3C[C@@H](O)CC(=O)O3)[C@H]21`, the melting point is 118 to 119 °C.
Compound `Cc1ccc(-n2cc(C(=O)O)c(=O)c3cc(F)c(F)c(F)c32)cc1` had a melting point of 110 to 111 °C.
The value for `COc1ccc(OC)c(CC(=O)c2c(O)c3cccnc3n(-c3ccccc3)c2=O)c1` was 159 to 161 °C.
For `CCOC1(OCCc2nc(C(C)C)c(Sc3cc(Cl)cc(Cl)c3)n2C)CCCCCC1` the value was 53 to 54 °C; for `COC(=O)C(Cc1ccccc1)NC(=O)c1cc2cc(Cl)ccc2[nH]1` (configuration not stated), 156 to 157 °C.
On to `Fc1cccc(F)c1-c1nccc(-c2ccc(-c3ccc(C(F)(F)F)cc3)cc2)n1`, for which the melting point lay within 141 to 142 °C.
As to `Cc1c(C(=O)O)ccc(O)c1O`, the melting point was in the range of 200 to 201 °C.
On to `Oc1ncc(-c2ccc(C(F)(F)F)cc2)cn1`, for which the melting point is 271 to 273 °C.
For `CC(C)N1CCN(c2ccc(Br)cn2)CC1` the value was 76 to 78 °C.
`CCNc1nc(CC)c(-c2ccncc2)s1` registered a melting point of 126 to 128 °C.
Take `NC(=O)C1(CCCCCCCCCCCCC2(C(=O)O)CC2)CC1`: the melting point was 117 to 118 °C.
Take `C#CCCC(=O)Oc1cc(-n2c(OC)nc(C(F)(F)C(F)(F)F)c(F)c2=O)c(F)cc1Cl`: the melting point was 107 to 109 °C.
The value for `CC(C)CCCC(C)C1CCC2(C#N)C3C=CC4C(C)(C)C(OC(=O)c5ccccc5)CCC4(C)C3CCC12C` (configuration not stated) was 232 to 233 °C; that for `CS(=O)(=O)Nc1cc(C(O)CNC2CCN(c3ccc(C=C4SC(=O)NC4=O)cc3Br)CC2)ccc1O` (configuration not stated) was more than 200 °C; that for `CCCc1c(OCC(C)CC(=O)NC(C)CCCc2cccnc2)ccc(C(C)=O)c1O` (configuration not stated) was 77 to 83 °C.
`Cc1cc(C)c(-n2ccc3c(Cl)nn(C)c(=O)c32)c(C)c1` returned a melting point of 170 to 171 °C.
Turning to `CCCCN(Cc1ccc(-c2ccccc2-c2nnn[nH]2)cc1)c1ncncc1C(=O)OCC`, the melting point was in the range of 109 to 111 °C.
Regarding `CCc1ccc2c(n1)C(C(N)=S)CCC2` (configuration not stated), the melting point fell in the range of 73 to 75 °C.
`COc1c(O)cc2c(c1Sc1ccccc1)CCN(C)CC2`: the melting point was in the range of 161 to 162 °C.
In turn, `CCCCCC(=O)N1c2ccccc2NC(=O)c2cscc21` returned a melting point of 127 to 129 °C.
The compound `Cc1ccc([N+](=O)[O-])cc1Nc1ncc(-c2cccnc2)o1` registered a melting point of 252 °C.
For `CC(C)(C)OC1CCC2(C)C(=CC(=O)C3C4CCC(=O)C4(C)CCC32)C1` (configuration not stated) the value was 189 to 191 °C; for `CN(C)C=Nc1sc(C=O)c(S(=O)(=O)c2ccccc2)c1C#N`, 262 °C; for `CCCCNC(=O)Nc1ncc(-c2ccncc2)cn1`, 204 to 206 °C.
For the compound `CN(C)c1ccc(C=CC(=O)c2ccc(OCCO)cc2)cc1`, the melting point was 127 to 128 °C.
Compound `COc1ccc(CNc2nc(Cl)ncc2C(=O)c2cc(OC)c(OC)c(OC)c2)cc1Cl` gave a melting point of 165 °C.
As to `CCOC(=O)c1[nH]c(C)c(C(C)(C)C)c1C`, the melting point lay in the range of 108 to 110 °C.
Consider `CC(=O)Nc1cccc(C=Cc2nc3c(c(=O)n(C)c(=O)n3C)n2C)c1`, for which the melting point is more than 300 °C.
`Nc1ccc(F)cc1CCN1CCN(c2nsc3ccccc23)CC1` yielded a melting point of 115 °C.
The value for `CCCCCCCCCCCCOC(=O)c1cc(N)ccc1[N+](=O)[O-]` was 58 to 59 °C; that for `Cc1cc(C)n(C(=O)CNS(=O)(=O)c2ccc(Cl)cc2)n1` was 135 to 136 °C.
For `O=C(Nc1cccc(-c2ncnc3[nH]c(-c4ccncc4)cc23)c1)c1cccc(C(F)(F)F)c1`, the melting point is more than 280 °C.
The value for `Nc1ccc(N2C(=O)c3ccccc3C2=O)cc1S(F)(F)(F)(F)F` was 176 to 178 °C; that for `CCOC(=O)C(=CNc1ccc2c(c1)CCC2)C(=O)OCC` was 25 to 30 °C.
`CCCCc1nc(SC)c(C(=O)OCC)n1Cc1ccccc1-c1cccc(S(=O)(=O)NC#N)c1`: the melting point came out at 108 °C.
The value for `CC(=NNC(=O)c1cc([N+](=O)[O-])cc2ccccc12)c1ccncc1` was 228 °C.
Turning to `CCOC(=O)C1=C(CS(=O)c2ccccc2)Nc2ccnc(OC(C)C)c2C1c1ccccc1C(F)(F)F` (configuration not stated), the melting point fell in the range of 206 to 208 °C.
`Nc1ccc(Oc2cccc3ccccc23)nc1`: the melting point lay within 82.2 to 83.7 °C.
For `Cc1ccc(S(=O)(=O)NC(=O)C(C)(NC=O)C(C)C)cc1` (configuration not stated) the value was 131 to 135 °C; for `O=C(Nc1ccc2ccc(Br)nc2n1)c1ccc(F)cc1`, 228 °C; for `CCCOc1ccccc1-c1nc2nc(N3CCOCC3)ncc2c(=O)[nH]1`, 176 to 177 °C.
The value for `CCCc1c(OCCCS(=O)(=O)c2ccc(C(=O)OC)cn2)ccc(C(C)=O)c1O` was 114 to 116 °C; that for `O=c1cc(C2(Br)CCCCC2)oc2c(CBr)cccc12` was 134 to 135 °C.
Regarding `Cc1c(NC(=O)c2ccc(OC[C@@H]3CCCO3)cc2)ccc2cc(CNCC3CCOCC3)cnc12`, the melting point fell in the range of 92 to 94 °C.
For `O=c1c2c(Cc3cccc(C(F)(F)F)c3)n[nH]c2c2cccnc2n1-c1ccccc1` the value was 303 to 305 °C; for `CC(C)n1nc(-c2sc(NC(=O)CNCc3ccccc3)nc2-c2ccccc2)ccc1=O`, 144 to 145 °C.
The value for `COC(=O)C(=CNc1cc(-c2cccc(Cl)c2)sc1C(=O)O)SC` was 84 to 86 °C.
With `O=C(NCc1ccc(F)cc1)c1ccc2nc(N[C@@H]3CCc4ccccc43)ccc2c1`, the melting point is 175 °C.
Compound `Oc1ccc2c(-c3ccccc3O)noc2c1` came in with a melting point of 164 to 166 °C.
`CC(C)(C)c1cc(CC#Cc2ccc(C(=O)O)c(O)c2)cc(C(C)(C)C)c1O` came in with a melting point of 205 to 206 °C.
The value for `OCc1nc2cccnc2n1Cc1ccc(-c2ccccc2)cc1` was 163 to 165 °C.
With `Cc1c(Br)cc2[nH]c(=O)c(=O)[nH]c2c1[N+](=O)[O-]`, the melting point is more than 340 °C.
Take `O=CC(=Cc1ccc([N+](=O)[O-])s1)c1ccc(Br)cc1`: the melting point is 105 to 108 °C.
For the compound `Cc1cccc(NC(=O)c2ccc(C(=O)N3Cc4cccn4Cc4ccccc43)cc2)c1C`, the melting point lay within 239 to 240 °C.
`N#CC(NC(=O)c1cccn2cc(-c3ccccc3)nc12)c1ccco1` (configuration not stated) came in with a melting point of 197 to 199 °C.
Compound `Cn1cc2c(O)cc(-c3ccc(Cl)cc3)nc2n1` returned a melting point of 302 to 305 °C.
